Data as given in US4414206A, “Animal feeds” (Bristol-Myers Company, priority 1982, dated 1983).
Entries after “also recorded” stand apart in the source; their conditions may differ.

Tests used:
[1] = system: Male broiler chickens; assay: Four week growth and feed efficiency study in broiler chicks fed amphomycin-supplemented feed; type: in vivo, chickens (Hubbard breeder pullet×White Mountain males)
Excerpt: The efficacy of amphomycin in promoting growth and improving the feed efficiency of broiler chicks is illustrated below.
In this example a basal diet was employed containing the following ingredients:
Male broiler chickens (Hubbard breeder pullet×White Mountain males) were used as the test animal. They were housed in electrically heated, metal battery brooders equipped with raised wire-screen floors. […] The room and battery units were left unclean from a previous test that terminated before the chicks were started. Drinking water for the test came from overflow water from a laying cage operation. The water was collected in garbage cans and was allowed to stand overnight to permit particulate matter to settle out. The birds were vaccinated at 7 days of age for Newcastle, Bronchitis and Marek's. The feed trays were fitted with wire screens riding on top of the feed to minimize feed wastage. Feed and water were fed ad libitum. Four groups of ten birds each, chosen on the basis of hatching body weight, were fed the experimental diet for a four week test period and four groups were fed the control diet. The groups of birds and diets were placed in the batteries on the basis of position chosen from tables of random numbers. The birds and the feed were group weighed on a weekly basis. The test was terminated at four weeks of age.
The control diet was prepared as follows:
The experimental diet (for amphomycin concentration
of 4 grams/ton) was prepared as follows:
*calculated for both groups at 800 grams body weight from feed efficiency

[2] = system: rumen fermentation; assay: Artificial rumen test (in vitro rumen fermentation); settings: for Cellulose digested (%) / Methane produced (cc) / Propionate produced / Total calories digested (Calories) / Caloric efficiency: mean ± one standard deviation, three observations; for Caloric efficiency: formula in drawing 1
Procedure: A standard in vitro method for determining compounds which stimulate propionate production during rumen fermentation is the artificial rumen method described in U.S. Pat. No. 3,794,732. […] This property in ruminants is presumably in addition to the previously-described feed-utilization efficiency promoting activity of amphomycin in monogastric animals which involves a different mechanism of action.
Amphomycin was evaluated at doses of 0.025, 0.1 and 0.5 mg per incubation (25 ml. inoculum--artificial saliva with cellulose, starch and urea as nutrients) according to the general procedure of Example 5 of U.S. Pat. No. 3,794,732.
^a Results reported as mean ± one standard deviation. Controls
^b Reported as a percent of total volatile fatty acid calories

[3] = 4 grams/ton amphomycin in feed, versus control group
[4] = broiler chickens, about 4 to 12 grams per ton of feed, on average
[5] = 0.025, 0.1 and 0.5 mg per incubation

amphomycin
Body weights in grams at 4 weeks of age ([1]; 4 grams/ton amphomycin in feed, ad libitum, four week test, male broiler chickens): 817.5 grams
Improvement in feed efficiency [1, 3]: 4.07%
Percentage increase in weight at end of 4 weeks [1, 3]: 6.21%
Feed efficiency calculated as consumption in grams ÷ average body weight in grams ([1]; 4 grams/ton amphomycin in feed, calculated at 800 grams body weight from feed efficiency curve): 1.480
less total feed consumed than comparable chickens fed same diet without amphomycin [1, 4]: 3%
more weight gained than comparable chickens fed same diet without amphomycin [1, 4]: about 3%
Urease activity ([2]; 0.025 mg/tube): 90 % of control
Cellulose digested (%) ([2]; 0.025 mg/tube): 64.9 ± 2.1%
Methane produced (cc) ([2]; 0.025 mg/tube): 2.88 ± 0.47 cc
Propionate produced ([2]; 0.025 mg/tube): 58.9 ± 0.9% of total volatile fatt
Total calories digested (Calories) ([2]; 0.025 mg/tube): 1108 ± 22 Calories
Caloric efficiency ([2]; 0.025 mg/tube): 62.1 ± 4.5
Urease activity ([2]; 0.1 mg/tube): 84 % of control
Cellulose digested (%) ([2]; 0.1 mg/tube): 64.0 ± 2.4%
Methane produced (cc) ([2]; 0.1 mg/tube): 2.53 ± 0.20 cc
Propionate produced ([2]; 0.1 mg/tube): 62.1 ± 1.7% of total volatile fatt
Total calories digested (Calories) ([2]; 0.1 mg/tube): 1098 ± 26 Calories
Caloric efficiency ([2]; 0.1 mg/tube): 68.9 ± 10.0
Urease activity ([2]; 0.5 mg/tube): 60 % of control
Cellulose digested (%) ([2]; 0.5 mg/tube): 57.5 ± 4.0%
Methane produced (cc) ([2]; 0.5 mg/tube): 1.27 ± 0.07 cc
Propionate produced ([2]; 0.5 mg/tube): 67.1 ± 4.7% of total volatile fatt
Total calories digested (Calories) ([2]; 0.5 mg/tube): 1029 ± 43 Calories
Caloric efficiency ([2]; 0.5 mg/tube): 65.5 ± 16.8
cellulase / cellulolysis (cellulose digestion) (in words) [2, 5]: did not significantly inhibit; also recorded: decreases slightly; also recorded: does not significantly inhibit
methane production (in words) [2, 5]: significantly inhibits; also recorded: decreases significantly
propionate production (in words) [2, 5]: significantly increase; also recorded: increases significantly
total calories digested (in words) [2, 5]: did not significantly inhibit cellulase or significantly affect total calories digested
dose that appears to be the most efficacious ([2]; 25 ml. inoculum per incubation): 0.1 mg. per incubation
acetate and butyrate production (in words) ([2]; as the dose increases): decreases
